From PubChem BioAssay AID1918993 (Molecular Pharmacology Branch, DTP, NCI, 2023)
pIC50: −log10 of the molar value. Several values for one entry are separate records, joined by “and”; a condition that tells them apart may be missing. Equal values may be shown once.

Tested on: 233499-124-R-J3-PDC complex spheroid growth
Assay: Anticancer human tumor 233499-124-R-J3-PDC patient-derived colon adenocarcinoma cell line growth inhibition [AhR]
Details: for viability, T/C: stronger effect = lower value
In short: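 Complex tumor spheroids co-cultured with HUVEC and human MSC stroma; AhR antagonists tested in combination with standard-of-care and investigational agents. Top concentration at or near clinical Cmax (else 10 microM), half-log dilutions; growth expressed as percent test/control.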

[1] = curve of first compound, second compound 0.1 µM
[2] = curve of first compound, second compound 0.316 µM
[3] = curve of first compound, second compound 1 µM
[4] = curve of first compound, second compound 3.16 µM
[5] = curve of first compound, second compound 10 µM
[6] = second compound 0.1 µM, first compound 0.0316 µM
[7] = second compound 0.1 µM, first compound 0.1 µM
[8] = second compound 0.1 µM, first compound 0.316 µM
[9] = second compound 0.1 µM, first compound 1 µM
[10] = second compound 0.1 µM, first compound 3.16 µM
[11] = second compound 0.1 µM, first compound 10 µM
[12] = second compound 0.316 µM, first compound 0.0316 µM
[13] = second compound 0.316 µM, first compound 0.1 µM
[14] = second compound 0.316 µM, first compound 0.316 µM
[15] = second compound 0.316 µM, first compound 1 µM
[16] = second compound 0.316 µM, first compound 3.16 µM
[17] = second compound 0.316 µM, first compound 10 µM
[18] = second compound 1 µM, first compound 0.0316 µM
[19] = second compound 1 µM, first compound 0.1 µM
[20] = second compound 1 µM, first compound 0.316 µM
[21] = second compound 1 µM, first compound 1 µM
[22] = second compound 1 µM, first compound 3.16 µM
[23] = second compound 1 µM, first compound 10 µM
[24] = second compound 3.16 µM, first compound 0.0316 µM
[25] = second compound 3.16 µM, first compound 0.1 µM
[26] = second compound 3.16 µM, first compound 0.316 µM
[27] = second compound 3.16 µM, first compound 1 µM
[28] = second compound 3.16 µM, first compound 3.16 µM
[29] = second compound 3.16 µM, first compound 10 µM
[30] = second compound 10 µM, first compound 0.0316 µM
[31] = second compound 10 µM, first compound 0.1 µM
[32] = second compound 10 µM, first compound 0.316 µM
[33] = second compound 10 µM, first compound 1 µM
[34] = second compound 10 µM, first compound 3.16 µM
[35] = second compound 10 µM, first compound 10 µM
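Also: spheroids exposed to agents for seven days before reading.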

| SMILES | pIC50 [1] | pIC50 [2] | pIC50 [3] | pIC50 [4] | pIC50 [5] | viability, T/C [6] [%] | viability, T/C [7] [%] | viability, T/C [8] [%] | viability, T/C [9] [%] | viability, T/C [12] [%] | viability, T/C [13] [%] | viability, T/C [14] [%] | viability, T/C [15] [%] | viability, T/C [18] [%] | viability, T/C [19] [%] | viability, T/C [20] [%] | viability, T/C [21] [%] | viability, T/C [24] [%] | viability, T/C [25] [%] | viability, T/C [26] [%] | also measured |
| --- | --- | --- | --- | --- | --- | --- | --- | --- | --- | --- | --- | --- | --- | --- | --- | --- | --- | --- | --- | --- | --- |
| CC(C)CC(NC(=O)C(Cc1ccccc1)NC(=O)c1cnccn1)B(O)O (configuration not stated) | – | – | – | – | – | – | – | – | – | – | – | – | – | – | – | – | – | – | – | – | viability, T/C (compound 0.000949 µM): 104% and 97.6% and 89.6%; viability, T/C (compound 0.003 µM): 113% and 111% and 104%; viability, T/C (compound 0.00949 µM): 87.6% and 93.6% and 59.1%; viability, T/C (compound 0.03 µM): 3.07% and 10.3% and 0.16%; viability, T/C (compound 0.0949 µM): 0.13% and 0.15% and 0.11%; viability, T/C (compound 0.3 µM): 0.19% and 0.2% and 0.18%; pIC50 (curve of compound): 7.80 and 7.76 and 7.95 |
| Nc1ccn(C2OC(CO)C(O)C2(F)F)c(=O)n1 (configuration not stated) + Cc1ccccc1N=Nc1ccc(NC(=O)c2ccnn2C)c(C)c1 | < 5.00 | 6.55 | < 5.00 | < 5.00 | < 5.00 | 103 | 93.1 | 69.5 | 56.9 | 91.2 | 101 | 42.1 | 39.1 | 95.5 | 93.7 | 62.8 | 47.4 | 84.5 | 81.3 | 65.9 | viability, T/C [10]: 65.7%; viability, T/C [11]: 64.6%; viability, T/C [16]: 41%; viability, T/C [17]: 57%; viability, T/C [22]: 59.6%; viability, T/C [23]: 53.6%; viability, T/C [27]: 55.8%; viability, T/C [28]: 65.8%; viability, T/C [29]: 68.7%; viability, T/C [30]: 94%; viability, T/C [31]: 111%; viability, T/C [32]: 93.5%; viability, T/C [33]: 87.8%; viability, T/C [34]: 71.2%; viability, T/C [35]: 76.5% |
| CC1COCCN1c1cc(-c2ccnn2C)c2ccnc(-c3ccn[nH]3)c2n1 (configuration not stated) + Cc1ccccc1N=Nc1ccc(NC(=O)c2ccnn2C)c(C)c1 | < 6.00 | < 6.00 | 6.01 | < 6.00 | < 6.00 | 105 | 93.9 | 68.2 | 55.1 | 92.2 | 92.3 | 75 | 50.7 | 85.6 | 91.8 | 81.6 | 49.3 | 85 | 74 | 57.2 | viability, T/C (second compound 0.1 µM, first compound 0.00316 µM): 91.3%; viability, T/C (second compound 0.1 µM, first compound 0.01 µM): 98.8%; viability, T/C (second compound 0.316 µM, first compound 0.00316 µM): 99.4%; viability, T/C (second compound 0.316 µM, first compound 0.01 µM): 93.9%; viability, T/C (second compound 1 µM, first compound 0.00316 µM): 87.1%; viability, T/C (second compound 1 µM, first compound 0.01 µM): 97.1%; viability, T/C (second compound 3.16 µM, first compound 0.00316 µM): 91.8%; viability, T/C (second compound 3.16 µM, first compound 0.01 µM): 103%; viability, T/C [27]: 58%; viability, T/C (second compound 10 µM, first compound 0.00316 µM): 103%; viability, T/C (second compound 10 µM, first compound 0.01 µM): 99.3%; viability, T/C [30]: 101%; viability, T/C [31]: 80.5%; viability, T/C [32]: 74.5%; viability, T/C [33]: 58.7% |
| CC1(C)CCC(CN2CCN(c3ccc(C(=O)NS(=O)(=O)c4ccc(NCC5CCOCC5)c([N+](=O)[O-])c4)c(Oc4cnc5[nH]ccc5c4)c3)CC2)=C(c2ccc(Cl)cc2)C1 + Cc1cncc(-c2nc(NCCc3c[nH]c4ccccc34)c3ncn(C(C)C)c3n2)c1 | < 5.00 | < 5.00 | < 5.00 | < 5.00 | > 7.50 | 103 | 97.9 | 92.6 | 104 | 82 | 95 | 88.2 | 95.7 | 94.6 | 84.2 | 85.8 | 82 | 71.6 | 68.5 | 76.5 | viability, T/C [10]: 100%; viability, T/C [11]: 109%; viability, T/C [16]: 96.8%; viability, T/C [17]: 96.3%; viability, T/C [22]: 85.2%; viability, T/C [23]: 89.3%; viability, T/C [27]: 63.5%; viability, T/C [28]: 70.3%; viability, T/C [29]: 81.7%; viability, T/C [30]: 12%; viability, T/C [31]: 9.79%; viability, T/C [32]: 7.48%; viability, T/C [33]: 23.7%; viability, T/C [34]: 8.38%; viability, T/C [35]: 15.6% |
